Results from patent publication US6858591B2, “Antibiotic AA 896 analogs” (Wyeth Holdings Corporation, priority 2001, dated 2005).
In brackets after ≈: the same amount, converted by molar mass. Read-outs that look alike come from different tables or passages of the source.

Legend:
Assay in all cases: In vitro MIC, broth dilution
Type in all cases: cell-based
E. coli GC 4560 = conditions: Escherichia coli, GC4560
E. cloacae GC 3783 = conditions: Enterobacter cloacae, GC3783
P. aeruginosa GC 2214 = conditions: Pseudomonas aeruginosa, GC2214
P. aeruginosa GC 4532 = conditions: Pseudomonas aeruginosa, GC4532
E. faecalis GC 2242 = conditions: Enterococcus faecalis, GC2242
Summary of the method: (§1)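 Organisms were inoculated at 5×10^5 CFU/ml into Mueller-Hinton II containing antibiotic at 64-0.06 μg/ml, then incubated 18 hours at 35° C in ambient air. The MIC was the lowest concentration that inhibited growth.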

S. aureus GC 2216 = conditions: Staphylococcus aureus, GC2216
Summary of the method: as §1

S. aureus GC 1131 = conditions: Staphylococcus aureus, GC1131
Summary of the method: as §1

CNS GC 4537 = system: CNS GC 4537
Summary of the method: as §1

E. faecalis GC 4555 = conditions: Enterococcus faecalis, GC4555
Summary of the method: as §1

S. aureus GC 4536 = conditions: Staphylococcus aureus, GC4536
Summary of the method: as §1

E. faecalis GC 842 = conditions: Enterococcus faecalis, GC842
Summary of the method: as §1

CNS GC 4547 = system: CNS GC 4547
Summary of the method: as §1

CNS GC 4538 = system: CNS GC 4538
Summary of the method: as §1

K. pneumoniae GC 4534 = conditions: Klebsiella pneumoniae, GC4534
M. morganii GC 4531 = conditions: Morganella morganii, GC4531
E. coli GC 2203 = conditions: Escherichia coli, GC2203
E. coli GC 3226 = conditions: Escherichia coli, GC3226
S. marcescens GC 4077 = conditions: Serratia marcescens, GC4077
C. albicans GC 3066 = conditions: Candida albicans, GC3066
E. coli GC 4559 = conditions: Escherichia coli, GC4559

Compound | MIC (E. coli GC 4560) [µg/mL] | MIC (E. cloacae GC 3783) [µg/mL] | MIC (P. aeruginosa GC 2214) [µg/mL] | MIC (P. aeruginosa GC 4532) [µg/mL] | MIC (E. faecalis GC 2242) [µg/mL] | MIC (S. aureus GC 2216) [µg/mL] | MIC (S. aureus GC 1131) [µg/mL] | MIC (CNS GC 4537) [µg/mL] | MIC (E. faecalis GC 4555) [µg/mL] | MIC (S. aureus GC 4536) [µg/mL] | MIC (E. faecalis GC 842) [µg/mL] | MIC (CNS GC 4547) [µg/mL] | MIC (CNS GC 4538) [µg/mL] | MIC (K. pneumoniae GC 4534) [µg/mL] | MIC (M. morganii GC 4531) [µg/mL] | MIC (E. coli GC 2203) [µg/mL] | MIC (E. coli GC 3226) [µg/mL] | MIC (S. marcescens GC 4077) [µg/mL] | MIC (C. albicans GC 3066) [µg/mL] | MIC (E. coli GC 4559) [µg/mL] | also measured
COc1ccc(Cn2c(=O)ccn([C@@H]3OC([C@H](O)[C@H](NCCCNC(=O)[C@H](CC(=O)OCc4ccccc4)NC(=O)OCc4ccccc4)C(=O)OC(C)(C)C)[C@@H](O[Si](C)(C)C(C)(C)C)[C@H]3O[Si](C)(C)C(C)(C)C)c2=O)cc1 (stereo partly drawn) [Example 16, tert-Butyl (5S,12S)-5-[2-(benzyloxy)-2-oxoethyl]-12-[(R)-[(3R,4R,5R)-3,4-bis{[tert-butyl(dimethyl)silyl]oxy}-5-(3-(4-methoxybenzyl)-2,4-dioxo-3,4-dihydro-1(2H)-pyrimidinyl)tetrahydro-2-furanyl](hydroxy)methyl]-3,6-dioxo-1-phenyl-2-oxa-4,7,11-triazatridecan-13-oate] | > 128 | > 128 | > 128 | > 128 | 128 (≈ 114 µM) | > 128 | > 128 | > 128 | > 128 | > 128 | > 128 | > 128 | > 128 | > 128 | > 128 | > 128 | > 128 | > 128 | 128 (≈ 114 µM) | > 128 | –
COc1ccc(Cn2c(=O)ccn([C@@H]3OC([C@H](O)[C@H](NCCCNC(=O)[C@H](CCCCNC(=O)OCc4ccccc4)NC(=O)OCc4ccccc4)C(=O)OC(C)(C)C)[C@@H](O[Si](C)(C)C(C)(C)C)[C@H]3O[Si](C)(C)C(C)(C)C)c2=O)cc1 (stereo partly drawn) [Example 18, tert-Butyl (9S,16S)-9-{[(benzyloxy)carbonyl]amino}-16-[(R)-[(3R,4R,5R)-3,4-bis{[tert-butyl(dimethyl)silyl]oxy}-5-(3-(4-methoxybenzyl)-2,4-dioxo-3,4-dihydro-1(2H)-pyrimidinyl)tetrahydro-2-furanyl](hydroxy)methyl]-3,10-dioxo-1-phenyl-2-oxa-4,11,15-triazaheptadecan-17-oate] | > 128 | > 128 | > 128 | > 128 | 128 (≈ 109 µM) | > 128 | > 128 | > 128 | > 128 | > 128 | > 128 | > 128 | > 128 | > 128 | > 128 | > 128 | > 128 | > 128 | > 128 | > 128 | –
COc1ccc(Cn2c(=O)ccn([C@@H]3OC([C@H](O)[C@H](NCCCNC(=O)[C@@H](N)CCCCN)C(=O)OC(C)(C)C)[C@@H](O[Si](C)(C)C(C)(C)C)[C@H]3O[Si](C)(C)C(C)(C)C)c2=O)cc1 (stereo partly drawn) [Example 19, tert-Butyl (2S,3R)-3-[(3R,4R,5R)-3,4-bis{[tert-butyl(dimethyl)silyl]oxy}-5-(3-(4-methoxybenzyl)-2,4-dioxo-3,4-dihydro-1(2H)-pyrimidinyl)tetrahydro-2-furanyl]-2-[(3-{[(2S)-2,6-diaminohexanoyl]amino}propyl)amino]-3-hydroxypropanoate] | – | – | – | – | – | – | – | – | – | – | – | – | – | – | – | – | – | – | – | – | MIC (E. coli GC 4560; E. coli GC 4560, read-out: MIC): 8 µg/mL (≈ 8.82 µM); MIC (E. cloacae GC 3783; E. cloacae GC 3783, read-out: MIC): > 128 µg/mL; MIC (P. aeruginosa GC 2214; P. aeruginosa GC 2214, read-out: MIC): 128 µg/mL (≈ 141 µM); MIC (P. aeruginosa GC 4532; P. aeruginosa GC 4532, read-out: MIC): 128 µg/mL (≈ 141 µM); MIC (E. faecalis GC 2242; E. faecalis GC 2242, read-out: MIC): 8 µg/mL (≈ 8.82 µM); MIC (S. aureus GC 2216; S. aureus GC 2216, read-out: MIC): 8 µg/mL (≈ 8.82 µM); MIC (S. aureus GC 1131; S. aureus GC 1131, read-out: MIC): 4 µg/mL (≈ 4.41 µM); MIC (CNS GC 4537; CNS GC 4537, read-out: MIC): 8 µg/mL (≈ 8.82 µM); MIC (E. faecalis GC 4555; E. faecalis GC 4555, read-out: MIC): 8 µg/mL (≈ 8.82 µM); MIC (S. aureus GC 4536; S. aureus GC 4536, read-out: MIC): 8 µg/mL (≈ 8.82 µM); MIC (E. faecalis GC 842; E. faecalis GC 842, read-out: MIC): 8 µg/mL (≈ 8.82 µM); MIC (CNS GC 4547; CNS GC 4547, read-out: MIC): 16 µg/mL (≈ 17.6 µM); MIC (CNS GC 4538; CNS GC 4538, read-out: MIC): 8 µg/mL (≈ 8.82 µM); MIC (K. pneumoniae GC 4534; K. pneumoniae GC 4534, read-out: MIC): > 128 µg/mL; MIC (M. morganii GC 4531; M. morganii GC 4531, read-out: MIC): 128 µg/mL (≈ 141 µM); MIC (E. coli GC 2203; E. coli GC 2203, read-out: MIC): 128 µg/mL (≈ 141 µM); MIC (E. coli GC 3226; E. coli GC 3226, read-out: MIC): 128 µg/mL (≈ 141 µM); MIC (S. marcescens GC 4077; S. marcescens GC 4077, read-out: MIC): 128 µg/mL (≈ 141 µM); MIC (C. albicans GC 3066; C. albicans GC 3066, read-out: MIC): > 128 µg/mL; MIC (E. coli GC 4559; E. coli GC 4559, read-out: MIC): > 128 µg/mL
